Legend:
[1] = comparison with spiramycins II and III; cited from earlier work

Source text for Micrococcus luteus: The strain of Micrococcus luteus used is a strain naturally sensitive to spiramycin but resistant to congocidine.

SMILES	antibiotic activity compared with spiramycins II and III [1]	activity compared with the spiramycin of origin with the methyl group at position 4 (less active by a factor) (Micrococcus luteus; microbiological test on a sensitive strain of M. luteus)	microbiological activity compared with the unmodified spiramycin (weaker) (Micrococcus luteus; tested on the microorganism Micrococcus luteus, relative to unmodified spiramycin) [fold]
CO[C@@H]1[C@@H](O[C@@H]2O[C@H](C)[C@@H](O[C@H]3C[C@@](C)(O)[C@@H](O)[C@H](C)O3)[C@H](N(C)C)[C@H]2O)[C@@H](CC=O)C[C@@H](C)[C@@H](O[C@H]2CC[C@H](N(C)C)[C@@H](C)O2)/C=C/C=C/C[C@@H](C)OC(=O)C[C@H]1O [spiramycin I]	clearly greater	–	–
CC1CC=CC=CC(OC2CCC(N(C)C)C(C)O2)C(C)CC(CC=O)C(OC2OC(C)C(OC3CC(C)(O)C(O)C(C)O3)C(N(C)C)C2O)C(O)C(O)CC(=O)O1 (stereo not drawn) [spiramycin without the methyl group]	–	10	10

Source: patent publication US7579167B2, “Polypeptides involved in the biosynthesis of spiramycins, nucleotide sequences encoding these polypeptides and applications thereof” (Aventis Pharma S., priority 2002, dated 2009)
